Assay [1] deals with T1, Avi-KRAS G12D/Q25A (1-169) GppNHp/3×FLAG-PI3KCA (157-299) (Homo sapiens, UniProt P01116, G12D/Q25A).
T1 construct: Avi-KRAS G12D/Q25A (1-169) GppNHp
The experiment in a line: HTRF PI3KCA-KRAS G12D/Q25A-GppNHp disruption assay. To be noted: 1 h incubation. Format: biochemical. As for the experimental part:
(§1) The HTRF assay employed the following protocol:
(§2) Compounds were dispensed in assay plate (384-well, Grenier Bione #784075) using Echo (model 555) with dose response settings: 200 nL final volume, titration from 100 μM as a 10-point dilution series. Protein mix was prepared in assay buffer, and dispensed on plates, 10 μL per well, then incubated for 1 h at room temperature, with 700 rpm shaking. Reagents mix was prepared and dispensed on plates, 10 μL per well, then incubated for 1 h at room temperature, with 700 rpm shaking.
(§3) Plates were analyzed on an Envision plate reader using the following setting: Excitation 320 nm, Bandwidth […]; Emission 615 nm, Bandwidth […], Gain 100%, Flashes 100, Lag 60 μs. Data was reported as percentage of activity, with DMSO as 100%. Data was plotted and analyzed using Prism 8.
(TR-FRET usually uses a lanthanide donor and a delayed reading to cut background.)

Assay [2] concerns the target T2, Avi-KRAS G12D (1-169) GppNHp/RAF1 RBD-3×FLAG (52-151) (Homo sapiens, UniProt P01116, G12D).
T2 construct: Avi-KRAS G12D (1-169) GppNHp
The experiment in a line: HTRF Raf1-KRAS G12D-GppNHp disruption assay. To be noted: 1 h incubation. Format: biochemical. As for the experimental part: as §1, §2, §3

T2 sequence (P01116 1-169 isoform P01116-2 G12D limits assumed): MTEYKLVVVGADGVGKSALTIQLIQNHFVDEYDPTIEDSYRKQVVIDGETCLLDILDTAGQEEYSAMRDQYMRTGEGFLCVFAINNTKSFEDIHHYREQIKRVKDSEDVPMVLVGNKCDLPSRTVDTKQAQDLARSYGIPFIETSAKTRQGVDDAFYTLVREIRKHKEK
T1 sequence (P01116 1-169 isoform P01116-2 G12D/Q25A limits assumed): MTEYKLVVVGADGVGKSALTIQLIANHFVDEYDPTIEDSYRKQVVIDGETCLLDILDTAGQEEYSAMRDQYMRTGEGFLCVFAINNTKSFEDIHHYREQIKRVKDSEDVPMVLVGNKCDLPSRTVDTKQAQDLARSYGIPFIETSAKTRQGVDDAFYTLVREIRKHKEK

As usually defined, the IC50 is the concentration at which inhibition is half-maximal. A higher IC50 goes with lower potency. Consider `CN1CCC[C@H]1COc1nc(N[C@H]2C[C@H](N)C2)c2cc(Cl)c(-c3ccc(F)c4sc(N)nc34)c(F)c2n1` (atropisomer, axis not shown) [Compound 83], for which the IC50 in assay [1] and in assay [2] was 1 to 10 µM throughout. Turning to `CN(c1nc(OCC23CCCN2CCC3)nc2c(F)c(-c3ccc(F)c4sc(N)nc34)c(C(F)(F)F)cc12)[C@H]1C[C@@H](N)C1` (atropisomer, axis not shown) [Compound 250], the IC50 in assay [1] and in assay [2] was 0.1 to 1 µM in each case.

As to `CN(c1nc(OCC23CCCN2CCC3)nc2c(F)c(-c3ccc(F)c4sc(N)nc34)c(C(F)(F)F)cc12)[C@H]1C[C@@H]2CC[C@H]1N2` (atropisomer, axis not shown) [Compound 270], the IC50 is 10 to 30 µM in assay [1] and 1 to 10 µM in assay [2].

On to `CN(c1nc(OCC23CCCN2CCC3)nc2c(F)c(-c3ccc(F)c4sc(N)nc34)c(C(F)(F)F)cc12)[C@H]1C[C@H]2CC[C@@H]1N2` (atropisomer, axis not shown) [Compound 271], for which the IC50 lay within 1 to 10 µM in assay [1] and 0.1 to 1 µM in assay [2]. In the case of `CN(c1nc(OCC23CCCN2CCC3)nc2c(F)c(-c3ccc(F)c4sc(N)nc34)c(C(F)(F)F)cc12)[C@@H]1CCN(C(=O)CN)C1` (atropisomer, axis not shown) [Compound 277], the IC50 in assay [1] and in assay [2] was 1 to 10 µM in each case. In the case of `CN(c1nc(OCC23CCCN2CCC3)nc2c(F)c(-c3ccc(F)c4sc(N)nc34)c(C(F)(F)F)cc12)[C@@H]1CCN(C(N)=O)C1` (atropisomer, axis not shown) [Compound 278], the IC50 in assay [1] and in assay [2] was 1 to 10 µM throughout. `CN(c1nc(OCC23CCCN2CCC3)nc2c(F)c(-c3ccc(F)c4sc(N)nc34)c(C(F)(F)F)cc12)[C@@H]1CCN(C(N)=O)C1` (atropisomer, axis not shown) [Compound 279]: the IC50 in assay [1] was in the range of 1 to 10 µM; in assay [2], 10 to 30 µM. On to `Nc1nc2c(-c3c(C(F)(F)F)cc4c(N[C@H]5C[C@@H]6CC[C@H]5N6)nc(OCC56CCCN5CCC6)nc4c3F)ccc(F)c2s1` (atropisomer, axis not shown) [Compound 287], for which the IC50 in assay [1] and in assay [2] was 1 to 10 µM throughout. Turning to `CN(c1nc(OCC23CCCN2CCC3)nc2c(F)c(-c3ccc(F)c4sc(N)nc34)c(C(F)(F)F)cc12)[C@H]1CC[C@@H](N)CC1` (atropisomer, axis not shown) [Compound 294], the IC50 was in the range of 1 to 10 µM in assay [1] and 0.1 to 1 µM in assay [2].

`CN(c1nc(OCC23CCCN2CCC3)nc2c(F)c(-c3ccc(F)c4sc(N)nc34)c(C(F)(F)F)cc12)[C@@H]1CCNC1` (single isomer, unassigned) [Compound 238]: the half-inhibitory concentration (IC50) in assay [1] and in assay [2] was 1 to 10 µM each time. Take `Nc1nc2c(-c3c(C(F)(F)F)cc4c(N5CCNCC5)ncnc4c3F)ccc(F)c2s1` [Compound 65, 7-fluoro-4-(8-fluoro-4-(piperazin-1-yl)-6-(trifluoromethyl)quinazolin-7-yl)benzo[d]thiazol-2-amine]: the IC50 in assay [1] and in assay [2] was 10 to 30 µM throughout.

As to `C#Cc1cc2c(N3CCNCC3)ncnc2c(F)c1-c1ccc(F)c2sc(N)nc12` [Compound 66, 4-(6-ethynyl-8-fluoro-4-(piperazin-1-yl)quinazolin-7-yl)-7-fluorobenzo[d]thiazol-2-amine], the IC50 in assay [1] and in assay [2] was 10 to 30 µM each time. Consider `CC(=O)N1CC(Nc2nc(OC[C@@H]3CCCN3C)nc3c(F)c(-c4ccc(F)c5sc(N)nc45)c(Cl)cc23)C1` [Compound 67], for which the IC50 in assay [1] and in assay [2] was 10 to 30 µM in each case. Consider `CO[C@@H]1CN(C)C[C@H]1Oc1nc(NC2CNC2)c2cc(Cl)c(-c3ccc(F)c4sc(N)nc34)c(F)c2n1` [Compound 68], for which the IC50 in assay [1] and in assay [2] was 10 to 30 µM in each case. `CO[C@@H]1C[C@@H](COc2nc(N3CCNCC3)c3cc(Cl)c(-c4ccc(F)c5sc(N)nc45)c(F)c3n2)N(C)C1` [Compound 69]: the IC50 in assay [1] and in assay [2] was 10 to 30 µM in each case. Consider `CNCCNc1nc(OC[C@@H]2CCCN2C)nc2c(F)c(-c3ccc(F)c4sc(N)nc34)c(Cl)cc12` [Compound 70], for which the values for the IC50 in assay [1] and in assay [2] were 10 to 30 µM and 1 to 10 µM, respectively. For the molecule `CN1CCC[C@H]1COc1nc(N2CC3CNCC3C2)c2cc(Cl)c(-c3ccc(F)c4sc(N)nc34)c(F)c2n1` (stereo partly drawn) [Compound 71], the IC50 in assay [1] and in assay [2] was 10 to 30 µM each time. On to `CO[C@@H]1C[C@@H](COc2nc(NC3CNC3)c3cc(Cl)c(-c4ccc(F)c5sc(N)nc45)c(F)c3n2)N(C)C1` [Compound 73], for which the IC50 in assay [1] is 10 to 30 µM; in assay [2], 1 to 10 µM. `CN(C)CCNc1nc(OC[C@@H]2CCCN2C)nc2c(F)c(-c3ccc(F)c4sc(N)nc34)c(Cl)cc12` [Compound 75]: the IC50 is 10 to 30 µM in assay [1] and 1 to 10 µM in assay [2].

Turning to `CC(=O)NCCNc1nc(OC[C@@H]2CCCN2C)nc2c(F)c(-c3ccc(F)c4sc(N)nc34)c(Cl)cc12` [Compound 76], the IC50 in assay [1] and in assay [2] was 10 to 30 µM in each case. In the case of `C[C@H]1CNCCN1c1nc(OC[C@@H]2CCCN2C)nc2c(F)c(-c3ccc(F)c4sc(N)nc34)c(Cl)cc12` [Compound 78], the IC50 in assay [1] and in assay [2] was 10 to 30 µM each time. As for `CN1CCC[C@H]1COc1nc(NC2CNC2)c2cnc(-c3ccc(F)c4sc(N)nc34)c(F)c2n1` [Compound 80], the IC50 in assay [1] and in assay [2] was 10 to 30 µM each time. With `CN1CCC[C@H]1COc1nc(NCCN)c2cnc(-c3ccc(F)c4sc(N)nc34)c(F)c2n1` [Compound 81], the IC50 in assay [1] and in assay [2] was 10 to 30 µM each time. For `Nc1nc2c(-c3c(Cl)cc4c(N5CCNCC5)nc(OCC56CCCN5CCC6)nc4c3F)ccc(F)c2s1` [Compound 82], the IC50 in assay [1] and in assay [2] was 1 to 10 µM each time. For `C[C@H]1CN(c2nc(OC[C@@H]3CCCN3C)nc3c(F)c(-c4ccc(F)c5sc(N)nc45)c(Cl)cc23)CCN1` [Compound 84], the IC50 in assay [1] and in assay [2] was 10 to 30 µM each time.

With `CN1CCC[C@H]1COc1nc(N2CC3(CCCN3)C2)c2cc(Cl)c(-c3ccc(F)c4sc(N)nc34)c(F)c2n1` [Compound 85], the IC50 in assay [1] and in assay [2] was 10 to 30 µM in each case. For the molecule `CN1CCC[C@H]1COc1nc(NCCN)c2cc(Cl)c(-c3cccc4nc(N)n(C)c34)c(F)c2n1` [Compound 86], the IC50 in assay [1] and in assay [2] was 10 to 30 µM throughout. In the case of `CNc1nc2c(-c3c(Cl)cc4c(NCCN)nc(OC[C@@H]5CCCN5C)nc4c3F)ccc(F)c2s1` [Compound 87], the IC50 in assay [1] and in assay [2] was 10 to 30 µM in each case. With `Nc1nc2c(-c3c(C(F)(F)F)cc4c(NC5CNC5)ncnc4c3F)ccc(F)c2s1` [Compound 88], the IC50 in assay [1] and in assay [2] was 10 to 30 µM throughout. Consider `Nc1nc2c(-c3c(Cl)cc4c(NC5CNC5)nc(O)nc4c3F)ccc(F)c2s1` [Compound 90], for which the IC50 in assay [1] and in assay [2] was 10 to 30 µM in each case.

As to `CN1CCC[C@H]1COc1nc(NC2CCNCC2)c2cc(Cl)c(-c3ccc(F)c4sc(N)nc34)c(F)c2n1` [Compound 91], the IC50 in assay [1] and in assay [2] was 1 to 10 µM each time. Turning to `CN1CCC[C@H]1COc1nc(NCCN)c2cc(Cl)c(-c3cccc4oc(N)nc34)c(F)c2n1` [Compound 92], the IC50 in assay [1] and in assay [2] was 10 to 30 µM in each case. `CN1CCC[C@H]1COc1nc(NCCN)c2cc(Cl)c(-c3cccc4nc(N)cn34)c(F)c2n1` [Compound 93]: the IC50 in assay [1] and in assay [2] was 10 to 30 µM each time. Turning to `CN1CCC[C@H]1COc1nc(NC2CN(C(=O)CN)C2)c2cc(C(F)(F)F)c(-c3ccc(F)c4sc(N)nc34)c(F)c2n1` [Compound 130], the IC50 in assay [2] fell in the range of 1 to 10 µM. On to `NC(=O)N1CC(Nc2nc(OCC34CCCN3CCC4)nc3c(F)c(-c4ccc(F)c5sc(N)nc45)c(-c4ccoc4)cc23)C1` [Compound 167], for which the IC50 in assay [2] was 10 to 30 µM. Molecule `Nc1nc2c(-c3c(C(F)(F)F)cc4c(N5CCNCC5)nc(OC[C@@H]5CCCN5CCF)nc4c3F)ccc(F)c2s1` [Compound 168] displayed an IC50 in assay [2] of 10 to 30 µM.

For `Nc1nc2c(-c3c(C(F)(F)F)cc4c(N5CCNCC5)nc(OC[C@]56CCCN5C[C@H](F)C6)nc4c3F)ccc(F)c2s1` [Compound 169], in assay [2], the IC50 was in the range of 10 to 30 µM. In assay [2], `CN(c1nc(OCC23CCCN2CCC3)nc2c(F)c(-c3ccc(F)c4sc(N)nc34)c(C(F)(F)F)cc12)C1CN(C(=O)CN)C1` [Compound 171] returned an IC50 of 1 to 10 µM. Consider `Nc1nc2c(-c3c(C(F)(F)F)cc4c(N5CCNCC5)nc(OC[C@@H]5CCCN5CC(F)F)nc4c3F)ccc(F)c2s1` [Compound 172], for which the IC50 in assay [2] was in the range of 10 to 30 µM. Take `CN(c1nc(OCC23CCCN2CCC3)nc2c(F)c(-c3ccc(F)c4sc(N)nc34)c(C(F)(F)F)cc12)C1CN(C(N)=O)C1` [Compound 173]: the IC50 in assay [2] lay in the range of 1 to 10 µM. With `NCC(=O)N1CCN(c2nc(OC[C@@H]3CCCN3CC(F)F)nc3c(F)c(-c4ccc(F)c5sc(N)nc45)c(C(F)(F)F)cc23)CC1` [Compound 193], the IC50 in assay [2] was 10 to 30 µM. For the molecule `Nc1nc2c(-c3c(-c4ccoc4)cc4c(N5CC6CC(C5)N6)nc(OCC56CCCN5CCC6)nc4c3F)ccc(F)c2s1` [Compound 194], the IC50 in assay [2] was 1 to 10 µM.

The record behind these values is patent US20240246954A1, “COMPOSITIONS AND METHODS FOR INHIBITING KRAS” (TheRas, Inc., priority 2021, published 2024).
